# Laboratory results reported in patent publication US11603373B2, “TDO2 and IDO1 inhibitors” (Genentech, Inc., priority 2017, dated 2023).
# Tests used:
# [1] = target: T1, TDO2 (SW48 cells, high TDO expressing cells) (Homo sapiens, UniProt P48775); assay: NFK GreenScreen cell assay, inhibition of TDO in SW48 cells; type: cell-based; conditions: read-out: TDO2 Cell Fluor EC50
# T1 construct: SW48 cells (high TDO expressing cells); endogenous in cells; host or cells: SW48 cells
# Excerpt: (§1) Cells are counted on a Vi-Cell (Beckman Coulter). […] The final DMSO concentration is 0.5%.
# [2] = target: T2, IDO1 (A172+IFNg cells, high IDO expressing cells) (Homo sapiens, UniProt P14902); assay: NFK GreenScreen cell assay, inhibition of IDO in A172+IFNg cells; type: cell-based; conditions: read-out: IDO cell Fluor EC50
# T2 construct: A172+IFNg cells (high IDO expressing cells); endogenous in cells; host or cells: A172 cells induced with 100 ng/ml IFNγ
# Excerpt: as §1
# T2 sequence (P14902 whole entry): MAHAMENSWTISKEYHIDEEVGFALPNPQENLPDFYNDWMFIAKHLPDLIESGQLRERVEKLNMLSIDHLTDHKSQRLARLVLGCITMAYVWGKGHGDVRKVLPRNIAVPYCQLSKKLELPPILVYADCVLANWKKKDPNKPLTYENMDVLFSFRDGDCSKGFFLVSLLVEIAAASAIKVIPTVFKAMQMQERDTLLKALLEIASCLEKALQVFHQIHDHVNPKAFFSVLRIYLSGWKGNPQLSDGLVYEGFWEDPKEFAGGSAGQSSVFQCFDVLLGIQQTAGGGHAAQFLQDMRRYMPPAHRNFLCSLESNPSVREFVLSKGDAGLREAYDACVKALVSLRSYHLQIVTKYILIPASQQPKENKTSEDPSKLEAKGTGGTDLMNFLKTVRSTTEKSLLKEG
# T1 sequence (P48775 whole entry): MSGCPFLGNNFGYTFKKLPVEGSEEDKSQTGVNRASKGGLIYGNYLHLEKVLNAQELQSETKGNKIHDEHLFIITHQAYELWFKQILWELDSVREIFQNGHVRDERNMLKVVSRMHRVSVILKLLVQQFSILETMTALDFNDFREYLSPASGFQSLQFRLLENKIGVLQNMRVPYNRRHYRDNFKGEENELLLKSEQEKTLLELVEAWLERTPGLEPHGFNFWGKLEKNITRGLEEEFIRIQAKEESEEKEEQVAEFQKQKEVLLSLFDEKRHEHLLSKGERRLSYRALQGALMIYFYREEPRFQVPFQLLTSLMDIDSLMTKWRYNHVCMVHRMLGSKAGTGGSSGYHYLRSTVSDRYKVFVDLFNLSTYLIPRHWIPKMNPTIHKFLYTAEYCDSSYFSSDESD
Structure (SMILES),EC50 [1] [nM],EC50 [2] [nM]
"CC(C)(C)OC(=O)N1CC2(CC[C@@H]([C@H]3c4ccccc4-c4cncn43)[C@@H]2O)C1 (single isomer, unassigned) [Example 3e]",14000,7100
"CC(C)(C)OC(=O)N1CC2(CC[C@H]([C@@H]3c4ccccc4-c4cncn43)[C@H]2O)C1 (single isomer, unassigned) [Example 3f]",130,170
"CC(C)(C)OC(=O)N1CC2(CC[C@@H]([C@@H]3c4ccccc4-c4cncn43)[C@H]2O)C1 (single isomer, unassigned) [Example 3g]",14000,8200
"CC(C)(C)OC(=O)N1CC2(CC[C@H]([C@H]3c4ccccc4-c4cncn43)[C@@H]2O)C1 (single isomer, unassigned) [Example 3h]",1200,200
"NS(=O)(=O)N1CCC2(CC[C@H]([C@H]3c4ccccc4-c4cncn43)[C@H]2O)CC1 (single isomer, unassigned) [Example 4b]",510,16000
"NS(=O)(=O)N1CCC2(CC[C@@H]([C@H]3c4ccccc4-c4cncn43)[C@H]2O)CC1 (single isomer, unassigned) [Example 4c]",4600,6200
"NS(=O)(=O)N1CCC2(CC[C@H]([C@@H]3c4ccccc4-c4cncn43)[C@@H]2O)CC1 (single isomer, unassigned) [Example 4d]",73,110
"CS(=O)(=O)N1CCC2(CC1)C[C@H]([C@@H]1c3ccccc3-c3cncn31)[C@@H]2O (single isomer, unassigned) [Example 6a]",400,5900
"CS(=O)(=O)N1CCC2(CC1)C[C@@H]([C@H]1c3ccccc3-c3cncn31)[C@@H]2O (single isomer, unassigned) [Example 6d]",540,9300
"CS(=O)(=O)N1CCC2(CC1)C[C@@H]([C@@H]1c3ccccc3-c3cncn31)[C@H]2O (single isomer, unassigned) [Example 6e]",6800,3200
"CS(=O)(=O)N1CCC2(CC1)C[C@H]([C@H]1c3ccccc3-c3cncn31)[C@@H]2O (single isomer, unassigned) [Example 6f]",120,24
"CS(=O)(=O)N1CCC2(CC1)C[C@H]([C@H]1c3ccccc3-c3cncn31)[C@H]2O (single isomer, unassigned) [Example 6g]",1230,4680
"CS(=O)(=O)N1CCC2(CC1)C[C@@H]([C@@H]1c3ccccc3-c3cncn31)[C@@H]2O (single isomer, unassigned) [Example 6h]",8600,6500
"CS(=O)(=O)N1CCC2(CC[C@@H]([C@@H]3c4ccccc4-c4cncn43)[C@@H]2O)CC1 (single isomer, unassigned) [Example 7a]",370,3900
"CS(=O)(=O)N1CCC2(CC[C@@H]([C@H]3c4ccccc4-c4cncn43)[C@H]2O)CC1 (single isomer, unassigned) [Example 7c]",133,115
"O=S(=O)(CF)N1CCC2(CC1)C[C@H]([C@@H]1c3ccccc3-c3cncn31)[C@@H]2O (single isomer, unassigned) [Example 8a]",15000,17000
"O=S(=O)(CF)N1CCC2(CC1)C[C@@H]([C@H]1c3ccccc3-c3cncn31)[C@H]2O (single isomer, unassigned) [Example 8b]",120,48
"COC(=O)N1CCC2(CC[C@@H]([C@H]3c4ccccc4-c4cncn43)[C@H]2O)CC1 (single isomer, unassigned) [Example 9a]",21000,18000
"COC(=O)N1CCC2(CC[C@H]([C@@H]3c4ccccc4-c4cncn43)[C@@H]2O)CC1 (single isomer, unassigned) [Example 9b]",100,130
"CC(=O)N1CCC2(CC[C@H]([C@@H]3c4ccccc4-c4cncn43)[C@@H]2O)CC1 (single isomer, unassigned) [Example 10b]",170,240
"NS(=O)(=O)N1CCC2(CC1)C[C@H]([C@@H]1c3ccccc3-c3cncn31)[C@@H]2O (single isomer, unassigned) [Example 11a]",660,20000
"NS(=O)(=O)N1CCC2(CC1)C[C@@H]([C@@H]1c3ccccc3-c3cncn31)[C@H]2O (single isomer, unassigned) [Example 11e]",12000,6800
"NS(=O)(=O)N1CCC2(CC1)C[C@H]([C@H]1c3ccccc3-c3cncn31)[C@@H]2O (single isomer, unassigned) [Example 11f]",182,58.5

Structure (SMILES),EC50 [1] [nM],EC50 [2] [nM]
"NS(=O)(=O)N1CCC2(CC1)C[C@H]([C@H]1c3ccccc3-c3cncn31)[C@H]2O (single isomer, unassigned) [Example 11g]",930,4700
"CC(C)(C)OC(=O)N1[C@@H]2CC[C@H]1C[C@@]1(C[C@@H]([C@H]3c4ccccc4-c4cncn43)[C@H]1O)C2 (single isomer, unassigned) [Example 12b]",21000,8100
"CC(C)(C)OC(=O)N1[C@@H]2CC[C@H]1C[C@]1(C[C@H]([C@H]3c4ccccc4-c4cncn43)[C@@H]1O)C2 (single isomer, unassigned) [Example 12c]",520,1900
"CC(C)(C)OC(=O)N1[C@@H]2CC[C@H]1C[C@@]1(C[C@@H]([C@@H]3c4ccccc4-c4cncn43)[C@H]1O)C2 (single isomer, unassigned) [Example 12d]",9800,4300
"CC(C)(C)OC(=O)N1[C@@H]2CC[C@H]1C[C@]1(C[C@@H]([C@@H]3c4ccccc4-c4cncn43)[C@@H]1O)C2 (single isomer, unassigned) [Example 12e]",1500,3900
"CC(C)(C)OC(=O)N1[C@@H]2CC[C@H]1C[C@@]1(C[C@H]([C@H]3c4ccccc4-c4cncn43)[C@H]1O)C2 (single isomer, unassigned) [Example 12f]",11000,1900
"CC(C)(C)OC(=O)N1[C@@H]2CC[C@H]1C[C@]1(C[C@H]([C@@H]3c4ccccc4-c4cncn43)[C@H]1O)C2 (single isomer, unassigned) [Example 12g]",2100,4700
"CC(C)(C)OC(=O)N1[C@@H]2CC[C@H]1C[C@@]1(C[C@@H]([C@H]3c4ccccc4-c4cncn43)[C@@H]1O)C2 (single isomer, unassigned) [Example 12h]",13000,7000
"CC(C)(C)OC(=O)N1[C@@H]2CC[C@H]1C[C@@]1(C[C@H]([C@@H]3c4ccccc4-c4cncn43)[C@@H]1O)C2 (single isomer, unassigned) [Example 12i]",13000,5800
"CC(C)(C)OC(=O)N1[C@@H]2CC[C@H]1C[C@]1(C[C@@H]([C@H]3c4ccccc4-c4cncn43)[C@H]1O)C2 (single isomer, unassigned) [Example 12j]",740,120
"CC(C)(C)OC(=O)N1[C@@H]2CC[C@H]1C[C@@]1(C[C@H]([C@H]3c4ccccc4-c4cncn43)[C@@H]1O)C2 (single isomer, unassigned) [Example 12k]",15000,13000
"CC(C)(C)OC(=O)N1[C@@H]2CC[C@H]1C[C@]1(C[C@@H]([C@@H]3c4ccccc4-c4cncn43)[C@H]1O)C2 (single isomer, unassigned) [Example 12l]",410,12000
"CC(C)(C)OC(=O)N1[C@@H]2CC[C@H]1C[C@@]1(C[C@@H]([C@@H]3c4ccccc4-c4cncn43)[C@@H]1O)C2 (single isomer, unassigned) [Example 12m]",15000,2000
"O=S1(=O)CCC2(CC[C@H]([C@@H]3c4ccccc4-c4cncn43)[C@@H]2O)CC1 (single isomer, unassigned) [Example 13b]",3300,7200
"O=S(=O)(C(F)F)N1CCC2(CC1)C[C@@H]([C@H]1c3ccccc3-c3cncn31)[C@H]2O (single isomer, unassigned) [Example 14b]",130,68
"CP(C)(=O)N1CCC2(CC1)C[C@@H]([C@H]1c3ccccc3-c3cncn31)[C@H]2O (single isomer, unassigned) [Example 15b]",1500,1100
"CC(=O)N1CC2(CC[C@H]([C@@H]3c4ccccc4-c4cncn43)[C@H]2O)C1 (single isomer, unassigned) [Example 17]",670,1300
"NS(=O)(=O)N1CC2(CC[C@H]([C@@H]3c4ccccc4-c4cncn43)[C@H]2O)C1 (single isomer, unassigned) [Example 18]",110,580
"COCCOC(=O)N1CCC2(CC[C@@H]([C@H]3c4ccccc4-c4cncn43)[C@H]2O)CC1 (single isomer, unassigned) [Example 19]",94,99
"CC(C)(C)OC(=O)N1CC2CCC(C1)C21C[C@@H]([C@H]2c3ccccc3-c3cncn32)[C@H]1O (single isomer, unassigned) [Example 22b]",5000,12000
"CC(C)(C)OC(=O)N[C@H]1CC[C@@]2(CC1)C[C@H]([C@@H]1c3ccccc3-c3cncn31)[C@H]2O (single isomer, unassigned) [Example 24a]",6900,4400
"CC(C)(C)OC(=O)N[C@H]1CC[C@@]2(CC1)C[C@@H]([C@H]1c3ccccc3-c3cncn31)[C@@H]2O (single isomer, unassigned) [Example 24b]",2100,1300
"CC(C)(C)OC(=O)N[C@H]1CC[C@]2(CC1)C[C@H]([C@@H]1c3ccccc3-c3cncn31)[C@H]2O (single isomer, unassigned) [Example 24c]",730,5200
